The target of the assay is T1, GAL4-DBD/RORγ-LBD (Homo sapiens, UniProt P51449).
T1 construct: expressed in transfected cells; host or cells: HEK293T
T1 sequence (P51449 269-508 limits assumed): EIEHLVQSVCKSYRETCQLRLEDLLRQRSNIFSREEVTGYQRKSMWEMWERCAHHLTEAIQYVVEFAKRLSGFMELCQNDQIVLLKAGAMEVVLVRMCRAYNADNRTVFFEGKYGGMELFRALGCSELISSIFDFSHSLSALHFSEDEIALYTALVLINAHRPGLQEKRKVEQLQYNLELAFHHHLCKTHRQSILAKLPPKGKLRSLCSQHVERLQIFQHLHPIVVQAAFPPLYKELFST
T1 sequence (P04386 1-147 partner limits assumed): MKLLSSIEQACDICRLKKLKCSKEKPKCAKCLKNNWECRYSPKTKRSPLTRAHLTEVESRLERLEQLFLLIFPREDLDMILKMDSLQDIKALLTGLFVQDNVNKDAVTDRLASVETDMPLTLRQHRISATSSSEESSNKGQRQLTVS
In words: RORγt transactivation reporter assay (GAL4-DBD/RORγ-LBD, luciferase read out). Type of assay: cell-based. The conditions noted are these: HEK293T cells, GAL4-UAS luciferase reporter, overnight (18-24 hours) incubation. The procedure:
RORγt Transactivation Reporter Assay Protocol: The inhibition of RORγt activity in cells was evaluated using a GAL4-UAS reporter system in HEK293T cells employing a luciferase read out. RORγt ligand binding domain (LBD) was cloned into the pFN26A (BIND) vector (Promega #[…]) containing yeast GAL4-DBD to form a RORγt LBD-GAL4 DBD fusion construct. This vector also contained a Renilla Luciferase reporter expressed under a SV40 promoter which was used as a control for transfection efficiency. A transcriptional reporter expression construct pGL4.35 (Promega #[…]) was used to monitor RORγt LBD-GAL4 activity. This construct contained nine repeats of GAL4 binding site/upstream activating sequence (UAS) controlling expression of a firefly luciferase reporter Luc2P. When transfected together in cells, the RORγ-LBD-DBD fusion protein drives expression of the luciferase reporter. For the assay, HEK293T cells were plated in a flat bottom 96 well plate at a density of 25,000 cells/well/100 ul of DMEM high glucose medium (Sigma D5648) containing 10% FBS and antibiotic. Cells were incubated overnight at 37 C/5% CO2. The next day, medium from the wells was removed and replaced with 30 ul of OptiMEM® (Invitrogen #31985070). 100 ng each of pBIND RORγ LBD-DBD and pGL4.35 reporter plasmids was transfected in HEK293T cells using Lipofectamine 2000 (Invitrogen #11668-019) where 10 ul of transfection complex was added to the each well. Control transfections were performed with an empty pF[…] vector and pGL4.35 vector. The transfected cells were incubated for 5 hours at 37 C/5% CO2. After incubation, 40 ul of DMEM high glucose medium without FBS, with antibiotic was added to each well. A 10 mM stock solution of test compound prepared in 100% DMSO was first diluted in DMSO and then in DMEM medium without FBS to give the required final compound concentration. Concentration of DMSO in the test compound solution was 0.4%. 20 ul of diluted compound solution was added to each well. Cells were incubated overnight (18-24 hours) at 37 C/5% CO2. The next day, luciferase assay was performed using the Dual Glo® Luciferase Assay System (Promega #E2940). Briefly, medium was removed from the wells and replaced with 40 ul 1× Passive Lysis Buffer (Promega #E1941). Plate was incubated at room temperature on a plate shaker at 1000 rpm for 40 min. After incubation, plate was centrifuged at 1000 rpm for 2 min. 20 ul of the lysate was transferred from each well to that of solid white half area 96 well plate (Costar #3693). Dual Glo® Reagent was thawed to room temperature and 20 ul was added to each well containing lysate. Plate was centrifuged at 1000 rpm/2 min and incubated at room temperature on a plate shaker at 600 rpm/25 min. Firefly luciferase signal was measured on a Tecan Safire2. After measurement, 20 ul of Dual Glo® Stop Glo® Reagent was added to each well. Plate was centrifuged at 1000 rpm/2 min and incubated at room temperature on a plate shaker at 600 rpm/25 min. Renilla luciferase signal was measured on Tecan Safire 2. IC50 values for test compounds were calculated from the normalized luciferase signal data using GraphPad Prism software.
Regarding “4-[3-(2,6-dibromobenzoyl)indolizin-1-yl]benzoic acid [Example A-53]”, the IC50 (as a rule, the concentration at which inhibition is half-maximal) is < 5000 nM. In the case of “4-[3-(2,6-dichloro-3-fluoro-benzoyl)-5,6,7,8-tetrahydroindolizin-1-yl]benzoic acid [Example H-3]” it was > 5000 nM; in that of “4-[3-(2,6-dichloro-3-fluoro-benzoyl)indolizin-1-yl]-N,N-dimethyl-benzamide [Example F-2]”, > 5000 nM. As for “4-[3-(2,6-dichlorobenzoyl)-6-(4H-1,2,4-triazol-3-yl)indolizin-1-yl]benzoic acid [Example D-10]”, the IC50 is < 500 nM. In the case of “4-[3-(2,6-dichlorobenzoyl)-6-(methylcarbamoyl)indolizin-1-yl]benzoic acid [Example D-9]” it was < 5000 nM; in that of “4-[3-(2,6-dichlorophenoxy)indolizin-1-yl]benzoic acid [Example E-3]”, > 5000 nM.

For “4-[3-(2,6-difluorobenzoyl)indolizin-1-yl]benzoic acid [Example A-37]”, the IC50 is < 500 nM.

As for “4-[3-(2-chloro-6-fluoro-benzoyl)indolizin-1-yl]benzoic acid [Example A-28]”, the 50% inhibitory concentration (IC50) is < 500 nM.

As for “4-[3-(2-chloro-6-methyl-benzoyl)-5,6,7,8-tetrahydroindolizin-1-yl]benzoic acid [Example H-5]”, the IC50 is < 500 nM. “4-[3-[2-chloro-6-(trifluoromethyl)benzoyl]-6-(pyrrolidine-1-carbonyl)indolizin-1-yl]benzoic acid [Example D-12]”: the IC50 was < 500 nM.

With “4-[6-carbamoyl-3-(2,6-dichlorobenzoyl)indolizin-1-yl]benzoic acid [Example D-13]”, the half-maximal inhibitory concentration (IC50) is < 5000 nM. With `CCOC(=O)c1ccc(-c2cc(C(=O)c3c(Cl)cccc3C(F)(F)F)n3ccccc23)cc1` [Example A-1, Ethyl 4-[3-[2-chloro-6-(trifluoromethyl)benzoyl]indolizin-1-yl]benzoate] the figure was < 500 nM; with `O=C(O)c1ccc(-c2cc(C(=O)c3c(Cl)cccc3C(F)(F)F)n3ccccc23)cc1` [Example A-2, 4-[3-[2-chloro-6-(trifluoromethyl)benzoyl]indolizin-1-yl]benzoic acid], < 500 nM. Consider `O=C(O)c1ccc(-c2cc(C(=O)c3c(Cl)cccc3Cl)n3ccccc23)c(F)c1` [Example A-3, 4-[3-(2,6-dichlorobenzoyl)indolizin-1-yl]-3-fluoro-benzoic acid], for which the IC50 is < 500 nM. In the case of `COC(=O)c1ccc(-c2cc(C(=O)c3c(Cl)cccc3Cl)n3ccccc23)c(F)c1` [Example A-4, methyl 4-[3-(2,6-dichlorobenzoyl)indolizin-1-yl]-3-fluoro-benzoate] it was < 500 nM. In the case of `COC(=O)c1ccc(-c2cc(C(=O)c3c(F)cccc3F)n3ccccc23)c(F)c1` [Example A-5, methyl 4-[3-(2,6-difluorobenzoyl)indolizin-1-yl]-3-fluoro-benzoate] it was < 500 nM; in that of `CCOC(=O)c1ccc(-c2cc(C(=O)c3c(Cl)cccc3Cl)n3ccccc23)cc1` [Example A-6, ethyl 4-[3-(2,6-dichlorobenzoyl)indolizin-1-yl]benzoate], < 500 nM. As for `COC(=O)c1cc(F)c(-c2cc(C(=O)c3c(Cl)cccc3Cl)n3ccccc23)c(F)c1` [Example A-7, methyl 4-[3-(2,6-dichlorobenzoyl)indolizin-1-yl]-3,5-difluoro-benzoate], the IC50 is < 500 nM. With `O=C(O)c1ccc(-c2cc(C(=O)c3c(Cl)cccc3Cl)n3ccccc23)cc1` [Example A-8, 4-[3-(2,6-dichlorobenzoyl)indolizin-1-yl]benzoic acid] the figure was < 500 nM; with `O=C(O)c1cc(F)c(-c2cc(C(=O)c3c(Cl)cccc3Cl)n3ccccc23)c(F)c1` [Example A-9, 4-[3-(2,6-dichlorobenzoyl)indolizin-1-yl]-3,5-difluoro-benzoic acid], < 500 nM. Consider `O=C(O)c1ccc(-c2cc(C(=O)c3c(Cl)cccc3Cl)n3ccccc23)cn1` [Example A-10, 5-[3-(2,6-dichlorobenzoyl)indolizin-1-yl]pyridine-2-carboxylic acid], for which the IC50 is > 5000 nM.

Take `COC(=O)c1ccc(-c2cc(C(=O)c3c(Cl)cccc3C(F)(F)F)n3ccccc23)c(F)c1` [Example A-11, methyl 4-[3-[2-chloro-6-(trifluoromethyl)benzoyl]indolizin-1-yl]-3-fluoro-benzoate]: the concentration for half-maximal inhibition (IC50) was < 500 nM. With `O=C(O)c1ccc(-c2cc(C(=O)c3c(Cl)cccc3C(F)(F)F)n3ccccc23)c(F)c1` [Example A-12, 4-[3-[2-chloro-6-(trifluoromethyl)benzoyl]indolizin-1-yl]-3-fluoro-benzoic acid] the figure was < 500 nM. In the case of `COC(=O)c1ccc(-c2cc(C(=O)c3c(C)cccc3Cl)n3ccccc23)c(F)c1` [Example A-13, methyl 4-[3-(2-chloro-6-methyl-benzoyl)indolizin-1-yl]-3-fluoro-benzoate] it was < 500 nM; in that of `CCOC(=O)c1ccc(-c2cc(C(=O)c3c(C)cccc3Cl)n3ccccc23)cc1` [Example A-14, ethyl 4-[3-(2-chloro-6-methyl-benzoyl)indolizin-1-yl]benzoate], < 500 nM; in that of `Cc1cccc(Cl)c1C(=O)c1cc(-c2ccc(C(=O)O)cc2F)c2ccccn12` [Example A-15, 4-[3-(2-chloro-6-methyl-benzoyl)indolizin-1-yl]-3-fluoro-benzoic acid], < 500 nM. With `Cc1cccc(Cl)c1C(=O)c1cc(-c2ccc(C(=O)O)cc2)c2ccccn12` [Example A-16, 4-[3-(2-chloro-6-methyl-benzoyl)indolizin-1-yl]benzoic acid] the figure was < 500 nM; with `COC(=O)c1ccc(-c2cc(C(=O)c3c(Cl)ccc(F)c3Cl)n3ccccc23)c(F)c1` [Example A-17, methyl 4-[3-(2,6-dichloro-3-fluoro-benzoyl)indolizin-1-yl]-3-fluoro-benzoate], < 500 nM. As for `O=C(O)c1ccc(-c2cc(C(=O)c3c(Cl)ccc(F)c3Cl)n3ccccc23)c(F)c1` [Example A-18, 4-[3-(2,6-dichloro-3-fluoro-benzoyl)indolizin-1-yl]-3-fluoro-benzoic acid], the IC50 was < 500 nM.

On to `O=C(O)c1ccc(-c2cc(C(=O)c3c(Cl)ccc(F)c3Cl)n3ccccc23)cc1` [Example A-19, 4-[3-(2,6-dichloro-3-fluoro-benzoyl)indolizin-1-yl]benzoic acid], for which the IC50 was < 500 nM. With `CCOC(=O)c1ccc(-c2cc(C(=O)c3c(Cl)cccc3Cl)n3cccc(F)c23)cc1` [Example A-21, ethyl 4-[3-(2,6-dichlorobenzoyl)-8-fluoro-indolizin-1-yl]benzoate] the figure was < 500 nM; with `COC(=O)c1ccc(-c2cc(C(=O)c3c(Cl)cccc3Cl)n3cccc(F)c23)c(F)c1` [Example A-22, methyl 4-[3-(2,6-dichlorobenzoyl)-8-fluoro-indolizin-1-yl]-3-fluoro-benzoate], < 500 nM; with `O=C(O)c1ccc(-c2cc(C(=O)c3c(Cl)cccc3Cl)n3cccc(F)c23)cc1` [Example A-23, 4-[3-(2,6-dichlorobenzoyl)-8-fluoro-indolizin-1-yl]benzoic acid], < 500 nM. In the case of `CCOC(=O)c1ccc(-c2cc(C(=O)c3c(F)cccc3Cl)n3ccccc23)cc1` [Example A-24, ethyl 4-[3-(2-chloro-6-fluoro-benzoyl)indolizin-1-yl]benzoate] it was < 500 nM. In the case of `O=C(O)c1ccc(-c2cc(C(=O)c3c(Cl)cccc3Cl)n3cc(F)ccc23)cc1` [Example A-26, 4-[3-(2,6-dichlorobenzoyl)-6-fluoro-indolizin-1-yl]benzoic acid] it was < 500 nM. Regarding `O=C(O)c1ccc(-c2cc(C(=O)c3c(F)cccc3Cl)n3ccccc23)c(F)c1` [Example A-27, 4-[3-(2-chloro-6-fluoro-benzoyl)indolizin-1-yl]-3-fluoro-benzoic acid], the IC50 was < 500 nM.
